Active and inactive are the calls of the source. No rule for the calls is given here.
System: CCRIS mutagenicity, Ames/micronucleus/aberration tests
Assay: CCRIS mutagenicity studies
Conditions: Test System: AMES SALMONELLA TYPHIMURIUM
[1] = Strain/Indicator: TA98, Metabolic Activation: NONE, Method: STANDARD PLATE

Measured: mutagenic call

O=[N+]([O-])c1ccc2cc3c(cc2c1)C=C[C@@H](O)[C@@H]3O
active: [1] active; positive | Strain/Indicator: TA98, Metabolic Activation: RAT, LIVER, S-9, AROCLOR 1254, Method: STANDARD PLATE active; positive

CC=C(C)C#N
inactive: Strain/Indicator: TA97, Metabolic Activation: HAMSTER, LIVER, S-9, AROCLOR 1254 (10 OR 30%), Method: PREINCUBATION inactive; negative | Strain/Indicator: TA97, Metabolic Activation: HAMSTER, LIVER, S-9, AROCLOR 1254 (30%), Method: PREINCUBATION inactive; negative | Strain/Indicator: TA97, Metabolic Activation: NONE, Method: PREINCUBATION inactive; negative | Strain/Indicator: TA97, Metabolic Activation: RAT, LIVER, S-9, AROCLOR 1254 (10%), Method: PREINCUBATION inactive; negative | Strain/Indicator: TA98, Metabolic Activation: HAMSTER, LIVER, S-9, AROCLOR 1254 (10%), Method: PREINCUBATION inactive; negative | Strain/Indicator: TA98, Metabolic Activation: HAMSTER, LIVER, S-9, AROCLOR 1254 (30%), Method: PREINCUBATION inactive; negative | Strain/Indicator: TA98, Metabolic Activation: NONE, Method: PREINCUBATION inactive; negative | Strain/Indicator: TA98, Metabolic Activation: RAT, LIVER, S-9, AROCLOR 1254 (10%), Method: PREINCUBATION inactive; negative | Strain/Indicator: TA98, Metabolic Activation: RAT, LIVER, S-9, AROCLOR 1254 (30%), Method: PREINCUBATION inactive; negative | Strain/Indicator: TA100, Metabolic Activation: HAMSTER, LIVER, S-9, AROCLOR 1254 (10%), Method: PREINCUBATION inactive; negative | Strain/Indicator: TA100, Metabolic Activation: HAMSTER, LIVER, S-9, AROCLOR 1254 (30%), Method: PREINCUBATION inactive; negative | Strain/Indicator: TA100, Metabolic Activation: NONE, Method: PREINCUBATION inactive; negative | Strain/Indicator: TA100, Metabolic Activation: RAT, LIVER, S-9, AROCLOR 1254 (10%), Method: PREINCUBATION inactive; negative | Strain/Indicator: TA100, Metabolic Activation: RAT, LIVER, S-9, AROCLOR 1254 (30%), Method: PREINCUBATION inactive; negative | Strain/Indicator: TA1535, Metabolic Activation: HAMSTER, LIVER, S-9, AROCLOR 1254 (10 OR 30%), Method: PREINCUBATION inactive; negative | Strain/Indicator: TA1535, Metabolic Activation: NONE, Method: PREINCUBATION inactive; negative | Strain/Indicator: TA1535, Metabolic Activation: RAT, LIVER, S-9, AROCLOR 1254 (10%), Method: PREINCUBATION inactive; negative | Strain/Indicator: TA1537, Metabolic Activation: HAMSTER, LIVER, S-9, AROCLOR 1254 (30%), Method: PREINCUBATION inactive; negative | Strain/Indicator: TA1537, Metabolic Activation: NONE, Method: PREINCUBATION inactive; negative | Strain/Indicator: TA1537, Metabolic Activation: RAT, LIVER, S-9, AROCLOR 1254 (30%), Method: PREINCUBATION inactive; negative

CC(C)CCC[C@@H](C)[C@H]1CC[C@H]2[C@@H]3C(=O)C=C4C[C@@H](O)CC[C@]4(C)[C@H]3CC[C@]12C
inactive: Strain/Indicator: TA97, Metabolic Activation: NONE, Method: STANDARD PLATE inactive; negative | [1] inactive; negative | Strain/Indicator: TA100, Metabolic Activation: NONE, Method: STANDARD PLATE inactive; negative | Strain/Indicator: TA102, Metabolic Activation: NONE, Method: STANDARD PLATE inactive; negative | Strain/Indicator: TA1535, Metabolic Activation: NONE, Method: STANDARD PLATE inactive; negative

Oc1cccc2c1ccc1c3c4c(cccc4cc12)C=C3
inactive: [1] inactive; negative
active: Strain/Indicator: TA98, Metabolic Activation: RAT, LIVER, S-9, AROCLOR 1254 (0, 0.4, 0.8, 1.15 OR 1.5 MG/PLATE), Method: STANDARD PLATE active; positive
